Consider 38 compounds from patent US7538241B2, “Hsp90 family protein inhibitors” (Kyowa Hakko Kogyo Co., Ltd., priority 2003, dated 2009).

For assay [1], the system named is human mammary cancer-derived KPL-4 cells. As to the kind of experiment: Cell growth inhibition test with KPL-4 cells (WST-1). The following applies: KPL4, 72 hours, read-out: 50% growth inhibition concentration (GI50). It is filed as cell-based. A digest of the protocol:
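Growth inhibition from WST-1 absorbance difference (450 minus 655 nm) after 1 h, relative to untreated control as 100%, giving GI50. KPL-4 cells had 24 h pre-culture in DMEM/10% FCS before 72 h compound exposure at 37 °C under 5% CO2.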
(In general: Formazan colour is commonly taken as a measure of viable cells.)

Assay [2] has as its system human chronic myelocytic leukemia-derived K562 cells. As to the kind of experiment: Cell growth inhibition test with K562 cells (WST-1). The following applies: 72 hours, read-out: 50% growth inhibition concentration (GI50). It is filed as cell-based. A digest of the protocol:
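K562 cells at 1500 cells/well in 10% FCS RPMI 1640, pre-incubated 5 h, then exposed to serially diluted compound for 72 h at 37° C, 5% CO2. Viability read by WST-1 after 2 h (absorbance 450/655 nm); GI50 reported.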

For the compound `CCc1c(O)cc(O)c(-c2ccccc2)c1CCOC` [Compound 83, 6-Ethyl-5-(2-methoxyethyl)-4-phenylbenzene-1,3-diol], the GI50 in assay [1] and in assay [2] was at most 50 µM in each case.
As for `OCCCc1c(Br)c(O)cc(O)c1-c1ccccc1` [Compound 104, 6-Bromo-5-(3-hydroxypropyl)-4-phenylbenzene-1,3-diol], the GI50 in assay [1] and in assay [2] was at most 50 µM in each case.
With `CCc1c(O)cc(O)c(-c2ccccc2)c1CCOCCCO` [Compound 175, 6-Ethyl-5-[2-(3-hydroxypropoxy)ethyl]-4-phenylbenzene-1,3-diol], the GI50 in assay [1] and in assay [2] was at most 50 µM each time.
Consider `CCc1c(O)cc(O)c(-c2cccc(OC)c2)c1CCOCC(O)CO` (stereo not drawn) [Compound 189, 5-[2-(2,3-Dihydroxypropoxy)ethyl]-6-ethyl-4-(3-methoxyphenyl)benzene-1,3-diol], for which the GI50 in assay [1] and in assay [2] was at most 50 µM each time.
In the case of `COC(=O)Cc1cc(O)cc(O)c1-c1ccc2ccccc2c1` [Compound 270, Methyl-3,5-dihydroxy-2-(2-naphthyl)phenylacetate], the GI50 in assay [1] and in assay [2] was at most 50 µM throughout.
As for `COCCOCCc1c(C(C)=O)c(O)cc(O)c1-c1ccccc1` [Compound 136, 1-[2,4-Dihydroxy-6-[2-(2-methoxyethoxy)ethyl]-5-phenylphenyl)ethanone], the GI50 in assay [1] and in assay [2] was at most 50 µM each time.
For `CCc1c(O)cc(O)c(-c2cccc(O)c2)c1CCO` [Compound 172, 6-Ethyl-5-(2-hydroxyethyl)-4-(3-hydroxyphenyl)benzene-1,3-diol], the GI50 in assay [1] and in assay [2] was at most 50 µM throughout.
Regarding `CCc1c(O)cc(O)c(-c2cccc(C)c2)c1CCOCCOC` [Compound 149, 6-Ethyl-5-[2-(2-methoxyethoxy)ethyl]-4-(3-methylphenyl)benzene-1,3-diol], the GI50 in assay [1] and in assay [2] was at most 50 µM in each case.
Regarding `CCc1c(O)cc(O)c(-c2ccccc2)c1CCOCC(=O)NC` [Compound 156, 2-[2-(2-Ethyl-3,5-dihydroxy-6-phenylphenyl)ethoxy]-N-methylacetamide], the GI50 in assay [1] and in assay [2] was at most 50 µM in each case.
As for `COCCOCCc1c(C(C)=O)c(O)cc(O)c1-c1cccc(O)c1` [Compound 165, 1-{2,4-Dihydroxy-5-(3-hydroxyphenyl)-6-[2-(2-methoxyethoxy)ethyl]phenyl}ethanone], the GI50 in assay [1] and in assay [2] was at most 50 µM each time.
As for `CCc1c(O)cc(O)c(-c2cccc(OC)c2)c1CCO` [Compound 143, 6-Ethyl-5-(2-hydroxyethyl)-4-(3-methoxyphenyl)benzene-1,3-diol], the GI50 in assay [1] and in assay [2] was at most 50 µM each time.
`CCc1c(O)cc(O)c(-c2ccccc2)c1CCCOC(CO)CO` [Compound 163, 5-{3-[Bis(hydroxymethyl)methoxy]propyl}-6-ethyl-4-phenylbenzene-1,3-diol]: the GI50 in assay [1] and in assay [2] was at most 50 µM in each case.
With `CCc1c(O)cc(O)c(-c2ccccc2)c1CCCOCC(=O)NCCO` [Compound 167, 2-[3-(2-Ethyl-3,5-dihydroxy-6-phenylphenyl)propoxy]-N-(2-hydroxyethyl)acetamide], the GI50 in assay [1] and in assay [2] was at most 50 µM in each case.
For `CCc1c(O)cc(O)c(-c2ccccc2)c1CCCO` [Compound 123, 6-Ethyl-5-(3-hydroxypropyl)-4-phenylbenzene-1,3-diol], the GI50 in assay [1] and in assay [2] was at most 50 µM each time.
Regarding `COCCOCCc1c(C(C)=O)c(O)cc(O)c1-c1cccc(OC)c1` [Compound 137, 1-{2,4-dihydroxy-6-[2-(2-methoxyethoxy)ethyl]-5-(3-methoxyphenyl)phenyl}ethanone], the GI50 in assay [1] and in assay [2] was at most 50 µM each time.
Consider `CCc1c(O)cc(O)c(-c2ccccc2)c1CCCOCCO` [Compound 162, 6-Ethyl-5-[3-(2-hydroxyethoxy)propyl]-4-phenylbenzene-1,3-diol], for which the GI50 in assay [1] and in assay [2] was at most 50 µM throughout.
Turning to `CCc1c(O)cc(O)c(-c2cccc(C)c2)c1CCOC` [Compound 130, 6-Ethyl-5-(2-methoxyethyl)-4-(3-methylphenyl)benzene-1,3-diol], the GI50 in assay [1] and in assay [2] was at most 50 µM throughout.
With `COC(=O)Cc1c(C(C)=O)c(O)cc(O)c1-c1ccccc1` [Compound 69, Methyl 2-acetyl-3,5-dihydroxy-6-phenylphenylacetate], the GI50 in assay [1] and in assay [2] was at most 50 µM throughout.
Take `CCc1c(O)cc(O)c(-c2cccc(O)c2)c1CCOC` [Compound 171, 6-Ethyl-4-(3-hydroxyphenyl)-5-(2-methoxyethyl)benzene-1,3-diol]: the GI50 in assay [1] and in assay [2] was at most 50 µM each time.
For `CCc1c(O)cc(O)c(-c2ccccc2)c1CCOCCO` [Compound 161, 6-Ethyl-5-[2-(2-hydroxyethoxy)ethyl]-4-phenylbenzene-1,3-diol], the GI50 in assay [1] and in assay [2] was at most 50 µM in each case.
`CCc1c(O)cc(O)c(-c2ccccc2)c1CCCOCC(O)CO` (stereo not drawn) [Compound 148, 5-[3-(2,3-Dihydroxypropoxy)propyl]-6-ethyl-4-phenylbenzene-1,3-diol]: the GI50 in assay [1] and in assay [2] was at most 50 µM in each case.
As for `CCc1c(O)cc(O)c(-c2cccc(O)c2)c1CCOCC(O)CO` (stereo not drawn) [Compound 173, 5-[2-(2,3-dihydroxypropoxy)ethyl]-6-ethyl-4-(3-hydroxyphenyl)benzene-1,3-diol], the GI50 in assay [1] and in assay [2] was at most 50 µM throughout.
For `CCc1c(O)cc(O)c(-c2cccc(O)c2)c1CC1O[C@@H](CO)[C@H](CO)O1` [Compound 281, 5-{[(4S,5S)-4,5-bis(hydroxymethyl)-1,3-dioxolan-2-yl]methyl}-6-ethyl-4-(3-hydroxyphenyl)benzene-1,3-diol], the GI50 in assay [2] is at most 50 µM.
`CCc1c(O)cc(O)c(-c2ccccc2)c1CCC(CO)CO` [Compound 215, 6-Ethyl-5-[4-hydroxy-3-(hydroxymethyl)butyl]-4-phenylbenzene-1,3-diol]: the GI50 in assay [2] is at most 50 µM.
As for `CCc1c(O)cc(O)c(-c2ccc(F)c(Cl)c2)c1CCOCCO` [Compound 312, 4-(3-Chloro-4-fluorophenyl)-6-ethyl-5-[2-(2-hydroxyethoxy)ethyl]benzene-1,3-diol], in assay [2], the GI50 was at most 50 µM.
The same measure, in the same setting: under `CCc1c(O)cc(O)c(-c2ccccc2)c1CCc1ocnc1C(=O)N(CCO)CCO` [Compound 224, 5-[2-(2-ethyl-3,5-dihydroxy-6-phenylphenyl)ethyl]-N,N-bis(2-hydroxyethyl)-1,3-oxazole-4-carboxamide] stands at most 50 µM.
The same measure, in the same setting: under `CCc1c(O)cc(O)c(-c2cccc(O)c2)c1Cc1nn(CCOC)c(=O)o1` [Compound 324, 5-{[2-Ethyl-3,5-dihydroxy-6-(3-hydroxyphenyl)phenyl]methyl}-3-(2-methoxyethyl)-3H-1,3,4-oxadiazol-2-one] stands at most 50 µM; under `CCc1c(O)cc(O)c(-c2cc(C)cc(C)c2)c1CC1O[C@@H](CO)[C@H](CO)O1` [Compound 283, 5-{[(4S,5S)-4,5-bis(hydroxymethyl)-1,3-dioxolan-2-yl]methyl}-4-(3,5-dimethylphenyl)-6-ethylbenzene-1,3-diol], at most 50 µM.
Still for that read-out and setting: in the case of `CCc1c(O)cc(O)c(-c2ccc(OC)c(OC)c2)c1CCOCCO` [Compound 309, 6-Ethyl-5-[2-(2-hydroxyethoxy)ethyl]-4-(3,4-dimethoxyphenyl)benzene-1,3-diol] it was at most 50 µM.
As for `CCc1c(OC(=O)N(C)C)cc(OC(=O)N(C)C)c(-c2ccccc2)c1CCOCCOC` [Compound 326, 1,5-Bis(dimethylcarbamoyloxy)-4-ethyl-3-[2-(2-methoxyethoxy)ethyl]-2-phenylbenzene], the GI50 in assay [2] was at most 50 µM.
Same read-out and setting: in the case of `OC[C@H]1OC(Cc2cc(O)cc(O)c2-c2ccccc2)O[C@@H]1CO` [Compound 230, 5-{[(4R,5R)-4,5-bis(hydroxymethyl)-1,3-dioxolan-2-yl]methyl}-4-phenylbenzene-1,3-diol] it was at most 50 µM.
Same read-out and setting: under `CCc1c(O)cc(O)c(-c2ccccc2)c1CCC(C(=O)OC)C(=O)OC` [Compound 213, Methyl 4-(2-ethyl-3,5-dihydroxy-6-phenylphenyl)-2-(methoxycarbonyl)butanoate] stands at most 50 µM.
As to `CCc1c(O)cc(O)c(-c2ccccc2)c1CCc1ocnc1C(=O)NCC(O)CO` (stereo not drawn) [Compound 226, N-(2,3-dihydroxypropyl)-5-[2-(2-ethyl-3,5-dihydroxy-6-phenylphenyl)ethyl]-1,3-oxazole-4-carboxamide], the GI50 in assay [2] was at most 50 µM.
As to `CCc1c(O)cc(O)c(-c2ccccc2)c1CCCC(CO)CO` [Compound 217, 6-Ethyl-5-[5-hydroxy-4-(hydroxymethyl)pentyl]-4-phenylbenzene-1,3-diol], the GI50 in assay [2] was at most 50 µM.
Take `CCc1c(O)cc(O)c(-c2ccccc2)c1CCC(=O)NCCO` [Compound 220, 3-(2-Ethyl-3,5-dihydroxy-6-phenylphenyl)-N-(2-hydroxyethyl)propanamide]: in assay [2], the GI50 was at most 50 µM.
The same measure, in the same setting: in the case of `CCc1c(O)cc(O)c(-c2ccccc2)c1CCC(=O)NCCNC(C)=O` [Compound 221, N-[2-(acetylamino)ethyl]-3-(2-ethyl-3,5-dihydroxy-6-phenylphenyl)propanamide] it was at most 50 µM.
As to `CCc1c(O)cc(O)c(-c2ccccc2)c1CCN1CCC(O)C1` (stereo not drawn) [Compound 321, 6-Ethyl-5-[2-(3-hydroxypyrrolidin-1-yl)ethyl]-4-phenylbenzene-1,3-diol], the GI50 in assay [2] is at most 50 µM.
With `CCc1c(O)cc(O)c(-c2ccccc2)c1CC1OCC(CO)O1` (stereo not drawn) [Compound 211, 6-Ethyl-5-[(4-hydroxymethyl-1,3-dioxolan-2-yl)methyl]-4-phenylbenzene-1,3-diol], in assay [2], the GI50 is at most 50 µM.
